Source: ChEMBL document CHEMBL4393704, “Synthesis and biological evaluation of dihydroquinazoline-2-amines as potent non-nucleoside reverse transcriptase inhibitors of wild-type and mutant HIV-1 strains” (Eur J Med Chem, 2019)

Assays:
[1] = test system: Human immunodeficiency virus 1; test: Antiviral activity against HIV-1 3B harboring reverse transcriptase E138K mutant infected in MT4 cells measured after 5 days by MTT assay; assay type: functional, organism-based; conditions: Human immunodeficiency virus 1, 3B, MT4, 120 h
[2] = Cytotoxicity against human MT4 cells measured after 5 days by MTT assay; assay type: cell-based
[3] = test system: Human immunodeficiency virus 1; test: Antiviral activity against wild type HIV-1 3B infected in MT4 cells measured after 5 days by MTT assay; assay type: functional, organism-based; conditions: Human immunodeficiency virus 1, 3B, MT4, 120 h
[4] = Selectivity index, ratio of CC50 for human MT4 cells to EC50 for HIV-1 3B infected in MT4 cells; assay type: toxicity, cell-based; conditions: HIV-1 3B infected MT4 cells, read-out: Ratio CC50/EC50
[5] = test system: Human immunodeficiency virus 1; test: Antiviral activity against HIV-1 3B harboring reverse transcriptase RES056 mutant infected in MT4 cells measured after 5 days by MTT assay; assay type: functional, organism-based; conditions: Human immunodeficiency virus 1, 3B, MT4, 120 h
[6] = target: Human immunodeficiency virus type 1 reverse transcriptase (Human immunodeficiency virus 1, UniProt Q72547); test: Inhibition of recombinant wild-type HIV1 3B reverse transcriptase assessed as reduction in biotin-dUTP incorporation using poly(rA)/oligo(dT)16 as template primer incubated for 1 hr followed by the addition of (DIG)-dUTP and biotin-labeled dNTPs by ELISA
[7] = test system: Human immunodeficiency virus 1; test: Potency index, ratio of EFV EC50 to compound EC50 for antiviral activity against wild type HIV-1 3B infected in MT4 cells measured after 5 days by MTT assay; assay type: functional
[8] = test system: Human immunodeficiency virus 1; test: Potency index, ratio of ETV EC50 to compound EC50 for antiviral activity against HIV-1 3B harboring reverse transcriptase E138K mutant infected in MT4 cells measured after 5 days by MTT assay; assay type: functional
[9] = test system: Human immunodeficiency virus 1; test: Potency index, ratio of ETV EC50 to compound EC50 for antiviral activity against wild type HIV-1 3B infected in MT4 cells measured after 5 days by MTT assay; assay type: functional

Row | SMILES | EC50 [1] [nM] | CC50 at 120 h [2] [nM] | EC50 [3] [nM] | selectivity ratio [4] | EC50 [5] [nM] | IC50 [6] [nM] | Ratio EC50 [7] | Ratio EC50 [8] | Ratio EC50 [9]
1 | Fc1ccccc1NC1=Nc2ccc(Cl)cc2C(C#CC2CC2)(C(F)(F)F)N1 (stereo not given) | 140 | 3100 | 100 | 31 | > 3100 | – | – | – | –
2 | COc1ccc(NC2=Nc3ccc(Cl)cc3C(C#CC3CC3)(C(F)(F)F)N2)cc1 (stereo not given) | 410 | 8400 | 260 | 32 | > 8400 | – | – | – | –
3 | Cc1ccc(NC2=Nc3ccc(Cl)cc3C(C#CC3CC3)(C(F)(F)F)N2)cc1 (stereo not given) | 400 | 5000 | 250 | 20 | > 4900 | – | – | – | –
4 | Fc1ccc(NC2=Nc3ccc(Cl)cc3C(C#CC3CC3)(C(F)(F)F)N2)cc1F (stereo not given) | > 1800 | 1800 | 360 | 5 | > 1800 | – | – | – | –
5 | FC(F)(F)C1(C#CC2CC2)NC(Nc2ccc(Cl)c(Cl)c2)=Nc2ccc(Cl)cc21 (stereo not given) | 170 | 2100 | 30 | 70 | > 2100 | 3.7 | – | – | –
6 | Cc1cccc(NC2=Nc3ccc(Cl)cc3C(C#CC3CC3)(C(F)(F)F)N2)c1 (stereo not given) | 360 | 2100 | 210 | 10 | > 2100 | – | – | – | –
7 | FC(F)(F)C1(C#CC2CC2)NC(Nc2ccccc2Br)=Nc2ccc(Cl)cc21 (stereo not given) | 160 | 11000 | 88 | 133 | 1800 | 3.4 | – | – | –
8 | Fc1ccc(NC2=Nc3ccc(Cl)cc3C(C#CC3CC3)(C(F)(F)F)N2)cc1 (stereo not given) | 460 | 2400 | 250 | 9 | > 2300 | – | – | – | –
9 | COc1cccc(NC2=Nc3ccc(Cl)cc3C(C#CC3CC3)(C(F)(F)F)N2)c1 (stereo not given) | 290 | 2700 | 63 | 44 | > 2600 | 1.1 | – | – | –
10 | Cc1ccc(NC2=Nc3ccc(Cl)cc3C(C#CC3CC3)(C(F)(F)F)N2)cc1C (stereo not given) | 560 | 5900 | 610 | 8 | > 5800 | – | – | – | –
11 | FC(F)(F)C1(C#CC2CC2)NC(Nc2cccc(Cl)c2)=Nc2ccc(Cl)cc21 (stereo not given) | 480 | 2000 | 210 | 9 | > 2000 | – | – | – | –
12 | O=[N+]([O-])c1cccc(NC2=Nc3ccc(Cl)cc3C(C#CC3CC3)(C(F)(F)F)N2)c1 (stereo not given) | 360 | 1600 | 120 | 14 | > 1600 | – | – | – | –
13 | Cc1cc(C#N)cc(C)c1Oc1nc(Nc2ccc(C#N)cc2)nc(N)c1Br [ETRAVIRINE] | 6.3 | > 2000 | – | > 923 | 15 | – | – | – | –
14 | O=C1Nc2ccc(Cl)cc2[C@@](C#CC2CC2)(C(F)(F)F)O1 [EFAVIRENZ] | 2 | > 2000 | – | – | 55 | – | – | – | –
15 | N#Cc1cccc(NC2=Nc3ccc(Cl)cc3C(C#CC3CC3)(C(F)(F)F)N2)c1 (stereo not given) | 650 | 2200 | 440 | 5 | > 2200 | – | – | – | –
16 | N#Cc1ccc(NC2=Nc3ccc(Cl)cc3C(C#CC3CC3)(C(F)(F)F)N2)cc1 (stereo not given) | 3.5 | 1900 | 0.84 | 2300 | 66 | 10 | 2 | 2 | 9
17 | COc1ccccc1NC1=Nc2ccc(Cl)cc2C(C#CC2CC2)(C(F)(F)F)N1 (stereo not given) | 190 | 8600 | 150 | 58 | > 8600 | – | – | – | –
18 | FC(F)(F)c1cccc(NC2=Nc3ccc(Cl)cc3C(C#CC3CC3)(C(F)(F)F)N2)c1 (stereo not given) | 350 | 3300 | 51 | 64 | > 3200 | 4.5 | – | – | –
19 | Cc1ccccc1NC1=Nc2ccc(Cl)cc2C(C#CC2CC2)(C(F)(F)F)N1 (stereo not given) | 400 | 4100 | 140 | 30 | > 4100 | – | – | – | –
20 | Cc1cc(C)cc(NC2=Nc3ccc(Cl)cc3C(C#CC3CC3)(C(F)(F)F)N2)c1 (stereo not given) | 600 | 2100 | 360 | 6 | > 2100 | – | – | – | –
21 | FC(F)(F)C1(C#CC2CC2)NC(Nc2cccc(Br)c2)=Nc2ccc(Cl)cc21 (stereo not given) | 420 | 2100 | 150 | 14 | > 2100 | – | – | – | –
22 | Fc1ccc(NC2=Nc3ccc(Cl)cc3C(C#CC3CC3)(C(F)(F)F)N2)cc1Cl (stereo not given) | 460 | 1900 | 190 | 10 | > 1800 | – | – | – | –
23 | Fc1cccc(NC2=Nc3ccc(Cl)cc3C(C#CC3CC3)(C(F)(F)F)N2)c1 (stereo not given) | 340 | 2000 | 160 | 12 | > 2000 | – | – | – | –
24 | NC(=O)c1ccc(NC2=Nc3ccc(Cl)cc3C(C#CC3CC3)(C(F)(F)F)N2)cc1 (stereo not given) | 160 | 12000 | 220 | 58 | > 2900 | – | – | – | –
25 | FC(F)(F)C1(C#CC2CC2)NC(Nc2ccc(Br)cc2)=Nc2ccc(Cl)cc21 (stereo not given) | > 3400 | > 3400 | 450 | > 8 | > 3400 | – | – | – | –
26 | FC(F)(F)C1(C#CC2CC2)NC(Nc2ccccc2)=Nc2ccc(Cl)cc21 (stereo not given) | 380 | 2400 | 110 | 21 | > 2400 | – | – | – | –
